Biological target: DNA topoisomerase 2-alpha (Homo sapiens) (UniProt P11388)
Assay: Inhibition of human topoisomerase 2alpha-mediated supercoiled pBR322 DNA relaxation at 5 ug/ml by agarose gel electrophoresis

Chain of DNA topoisomerase 2-alpha (Homo sapiens) (P11388 whole entry): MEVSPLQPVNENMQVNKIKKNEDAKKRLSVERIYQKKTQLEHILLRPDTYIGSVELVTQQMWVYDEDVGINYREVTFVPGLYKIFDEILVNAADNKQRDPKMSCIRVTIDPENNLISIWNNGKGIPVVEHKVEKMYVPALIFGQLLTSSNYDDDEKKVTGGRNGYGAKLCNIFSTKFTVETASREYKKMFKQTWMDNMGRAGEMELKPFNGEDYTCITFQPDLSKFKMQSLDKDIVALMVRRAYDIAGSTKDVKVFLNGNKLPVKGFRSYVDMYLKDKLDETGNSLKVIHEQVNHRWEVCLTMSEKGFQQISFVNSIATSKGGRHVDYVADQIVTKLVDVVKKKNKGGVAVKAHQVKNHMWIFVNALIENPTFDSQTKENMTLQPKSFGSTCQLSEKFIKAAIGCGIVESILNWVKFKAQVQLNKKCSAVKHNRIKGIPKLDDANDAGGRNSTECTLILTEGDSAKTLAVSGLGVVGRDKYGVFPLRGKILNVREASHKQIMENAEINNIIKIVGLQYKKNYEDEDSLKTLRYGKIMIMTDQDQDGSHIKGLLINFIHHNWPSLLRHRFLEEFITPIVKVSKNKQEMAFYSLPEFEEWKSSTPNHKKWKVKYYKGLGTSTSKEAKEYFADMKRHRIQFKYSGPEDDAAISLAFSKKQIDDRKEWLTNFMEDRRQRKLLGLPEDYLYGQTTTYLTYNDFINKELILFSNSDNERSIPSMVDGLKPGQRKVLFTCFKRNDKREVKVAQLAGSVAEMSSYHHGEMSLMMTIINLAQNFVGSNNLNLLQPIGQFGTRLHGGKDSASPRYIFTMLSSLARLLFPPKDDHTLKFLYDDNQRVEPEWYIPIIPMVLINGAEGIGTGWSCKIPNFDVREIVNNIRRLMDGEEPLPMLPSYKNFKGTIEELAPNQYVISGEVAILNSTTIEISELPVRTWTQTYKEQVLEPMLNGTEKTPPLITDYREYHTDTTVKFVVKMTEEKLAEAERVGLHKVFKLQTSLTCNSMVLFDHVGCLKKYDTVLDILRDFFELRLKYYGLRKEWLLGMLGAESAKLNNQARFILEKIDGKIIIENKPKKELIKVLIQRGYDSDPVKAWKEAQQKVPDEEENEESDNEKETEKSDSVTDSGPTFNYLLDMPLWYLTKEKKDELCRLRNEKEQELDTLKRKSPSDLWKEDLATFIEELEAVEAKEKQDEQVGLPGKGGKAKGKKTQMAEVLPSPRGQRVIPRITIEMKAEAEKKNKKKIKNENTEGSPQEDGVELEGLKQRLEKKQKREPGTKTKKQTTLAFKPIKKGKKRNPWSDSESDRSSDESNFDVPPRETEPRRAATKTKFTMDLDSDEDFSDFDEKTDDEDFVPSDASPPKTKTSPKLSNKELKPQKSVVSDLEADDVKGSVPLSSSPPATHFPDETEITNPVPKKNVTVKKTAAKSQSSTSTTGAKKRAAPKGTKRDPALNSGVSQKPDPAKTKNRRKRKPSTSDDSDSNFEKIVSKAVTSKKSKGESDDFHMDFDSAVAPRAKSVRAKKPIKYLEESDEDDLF

inhibition: 90%
Structure (SMILES): NC1=C(Br)C2=NCCc3c[nH]c(c32)C1=O
